According to the NIST ThermoML archive (doi:10.1016/j.jct.2005.08.013):
Values joined by “and” are separate entries in the source; they are usually repeats but may differ in a detail not shown here. Equal values may be shown once. ± gives the expanded uncertainty stated by the source.

Conditions: Calculated from knudsen effusion weight loss

Compound: c1ccc(-c2cc(-c3ccccc3)cc(-c3ccccc3)c2)cc1 [1,3,5-triphenylbenzene]
- vapor or sublimation pressure (407.36 K, Crystal): 0.00014 ± 7e-06 kPa and 0.000141 ± 7e-06 kPa and 0.000139 ± 7e-06 kPa
- vapor or sublimation pressure (409.3 K, Crystal): 0.000173 ± 9e-06 kPa and 0.000166 ± 8e-06 kPa and 0.000164 ± 8e-06 kPa
- vapor or sublimation pressure (411.3 K, Crystal): 0.000215 ± 1.1e-05 kPa and 0.00021 ± 1.1e-05 kPa and 0.000206 ± 1e-05 kPa
- vapor or sublimation pressure (413.23 K, Crystal): 0.000251 ± 1.3e-05 kPa and 0.000256 ± 1.3e-05 kPa
- vapor or sublimation pressure (415.35 K, Crystal): 0.000317 ± 1.6e-05 kPa and 0.000316 ± 1.6e-05 kPa
- vapor or sublimation pressure (416.86 K, Crystal): 0.000361 ± 1.8e-05 kPa and 0.000348 ± 1.7e-05 kPa
- vapor or sublimation pressure (417.22 K, Crystal): 0.00037 ± 1.9e-05 kPa and 0.000371 ± 1.9e-05 kPa
- vapor or sublimation pressure (419.24 K, Crystal): 0.000454 ± 2.3e-05 kPa and 0.00047 ± 2.4e-05 kPa
- vapor or sublimation pressure (421.36 K, Crystal): 0.000542 ± 2.7e-05 kPa and 0.000563 ± 2.8e-05 kPa and 0.000568 ± 2.8e-05 kPa
- vapor or sublimation pressure (423.29 K, Crystal): 0.000672 ± 3.4e-05 kPa and 0.000668 ± 3.3e-05 kPa and 0.000649 ± 3.2e-05 kPa
- vapor or sublimation pressure (425.26 K, Crystal): 0.000796 ± 4e-05 kPa and 0.000784 ± 3.9e-05 kPa
- vapor or sublimation pressure (427.36 K, Crystal): 0.000966 ± 4.8e-05 kPa and 0.000984 ± 4.9e-05 kPa and 0.001 ± 5e-05 kPa
- vapor or sublimation pressure (429.29 K, Crystal): 0.00117 ± 0.00012 kPa and 0.0012 ± 0.00012 kPa

Compound: O=C1c2ccccc2-c2cccc3cccc1c23 [7H-benz[de]anthracen-7-one]
- vapor or sublimation pressure (390.31 K, Crystal): 0.000152 ± 8e-06 kPa and 0.000149 ± 7e-06 kPa
- vapor or sublimation pressure (392.23 K, Crystal): 0.000179 ± 9e-06 kPa and 0.000177 ± 9e-06 kPa
- vapor or sublimation pressure (394.57 K, Crystal): 0.000234 ± 1.2e-05 kPa and 0.000221 ± 1.1e-05 kPa
- vapor or sublimation pressure (396.35 K, Crystal): 0.000263 ± 1.3e-05 kPa and 0.000262 ± 1.3e-05 kPa and 0.00026 ± 1.3e-05 kPa
- vapor or sublimation pressure (398.22 K, Crystal): 0.000323 ± 1.6e-05 kPa and 0.000325 ± 1.6e-05 kPa
- vapor or sublimation pressure (400.41 K, Crystal): 0.000394 ± 2e-05 kPa and 0.000381 ± 1.9e-05 kPa
- vapor or sublimation pressure (402.19 K, Crystal): 0.000471 ± 2.4e-05 kPa and 0.000453 ± 2.3e-05 kPa
- vapor or sublimation pressure (404.34 K, Crystal): 0.00057 ± 2.9e-05 kPa and 0.000564 ± 2.8e-05 kPa and 0.000565 ± 2.8e-05 kPa
- vapor or sublimation pressure (406.35 K, Crystal): 0.000686 ± 3.4e-05 kPa and 0.000679 ± 3.4e-05 kPa and 0.00068 ± 3.4e-05 kPa
- vapor or sublimation pressure (408.35 K, Crystal): 0.00081 ± 4.1e-05 kPa and 0.000796 ± 4e-05 kPa and 0.0008 ± 4e-05 kPa
- vapor or sublimation pressure (410.23 K, Crystal): 0.000962 ± 4.8e-05 kPa and 0.000954 ± 4.8e-05 kPa and 0.000926 ± 4.6e-05 kPa

Compound: c1ccc2cc3ccccc3cc2c1 [anthracene]
- vapor or sublimation pressure (340.41 K, Crystal): 0.000143 ± 7e-06 kPa and 0.000144 ± 7e-06 kPa and 0.000141 ± 7e-06 kPa
- vapor or sublimation pressure (342.25 K, Crystal): 0.000172 ± 9e-06 kPa and 0.000173 ± 9e-06 kPa and 0.000167 ± 8e-06 kPa
- vapor or sublimation pressure (344.06 K, Crystal): 0.000211 ± 1.1e-05 kPa and 0.000206 ± 1e-05 kPa
- vapor or sublimation pressure (346.4 K, Crystal): 0.000258 ± 1.3e-05 kPa and 0.000262 ± 1.3e-05 kPa and 0.000263 ± 1.3e-05 kPa
- vapor or sublimation pressure (348.15 K, Crystal): 0.000306 ± 1.5e-05 kPa and 0.000304 ± 1.5e-05 kPa and 0.000308 ± 1.5e-05 kPa
- vapor or sublimation pressure (350.15 K, Crystal): 0.000375 ± 1.9e-05 kPa and 0.000371 ± 1.9e-05 kPa and 0.000376 ± 1.9e-05 kPa
- vapor or sublimation pressure (352.39 K, Crystal): 0.000464 ± 2.3e-05 kPa and 0.000459 ± 2.3e-05 kPa and 0.000458 ± 2.3e-05 kPa
- vapor or sublimation pressure (354.06 K, Crystal): 0.00055 ± 2.8e-05 kPa and 0.000548 ± 2.7e-05 kPa and 0.000554 ± 2.8e-05 kPa
- vapor or sublimation pressure (356.2 K, Crystal): 0.000673 ± 3.4e-05 kPa and 0.000679 ± 3.4e-05 kPa and 0.000658 ± 3.3e-05 kPa
- vapor or sublimation pressure (358.22 K, Crystal): 0.000815 ± 4.1e-05 kPa and 0.000821 ± 4.1e-05 kPa and 0.00081 ± 4.1e-05 kPa
- vapor or sublimation pressure (360.38 K, Crystal): 0.00101 ± 0.0001 kPa and 0.00098 ± 4.9e-05 kPa

Compound: O=C(O)c1ccccc1 [benzoic acid]
- vapor or sublimation pressure (299.33 K, Crystal): 0.000134 ± 7e-06 kPa and 0.000131 ± 7e-06 kPa
- vapor or sublimation pressure (301.04 K, Crystal): 0.000162 ± 8e-06 kPa and 0.00016 ± 8e-06 kPa and 0.000155 ± 8e-06 kPa
- vapor or sublimation pressure (303.16 K, Crystal): 0.000203 ± 1e-05 kPa and 0.000201 ± 1e-05 kPa and 0.00021 ± 1.1e-05 kPa
- vapor or sublimation pressure (305.24 K, Crystal): 0.000271 ± 1.4e-05 kPa and 0.000265 ± 1.3e-05 kPa and 0.000261 ± 1.3e-05 kPa
- vapor or sublimation pressure (307.13 K, Crystal): 0.000332 ± 1.7e-05 kPa and 0.000326 ± 1.6e-05 kPa and 0.000323 ± 1.6e-05 kPa
- vapor or sublimation pressure (309.25 K, Crystal): 0.000414 ± 2.1e-05 kPa and 0.000408 ± 2e-05 kPa and 0.00042 ± 2.1e-05 kPa
- vapor or sublimation pressure (311.3 K, Crystal): 0.000525 ± 2.6e-05 kPa and 0.000512 ± 2.6e-05 kPa and 0.000524 ± 2.6e-05 kPa
- vapor or sublimation pressure (313.2 K, Crystal): 0.000643 ± 3.2e-05 kPa and 0.000622 ± 3.1e-05 kPa and 0.000647 ± 3.2e-05 kPa
- vapor or sublimation pressure (315.27 K, Crystal): 0.000815 ± 4.1e-05 kPa and 0.000799 ± 4e-05 kPa and 0.00083 ± 4.2e-05 kPa
- vapor or sublimation pressure (317.32 K, Crystal): 0.00105 ± 0.00011 kPa and 0.00102 ± 0.0001 kPa and 0.00101 ± 0.0001 kPa

Compound: c1ccc2c(c1)ccc1ccccc12 [phenanthrene]
- vapor or sublimation pressure (313.46 K, Crystal 2): 0.000123 ± 6e-06 kPa and 0.000124 ± 6e-06 kPa
- vapor or sublimation pressure (315.48 K, Crystal 2): 0.000151 ± 8e-06 kPa and 0.000155 ± 8e-06 kPa and 0.000156 ± 8e-06 kPa
- vapor or sublimation pressure (317.41 K, Crystal 2): 0.000185 ± 9e-06 kPa and 0.000191 ± 1e-05 kPa and 0.000193 ± 1e-05 kPa
- vapor or sublimation pressure (319.47 K, Crystal 2): 0.000238 ± 1.2e-05 kPa and 0.000239 ± 1.2e-05 kPa and 0.000235 ± 1.2e-05 kPa
- vapor or sublimation pressure (321.48 K, Crystal 2): 0.000292 ± 1.5e-05 kPa and 0.000293 ± 1.5e-05 kPa and 0.000296 ± 1.5e-05 kPa
- vapor or sublimation pressure (323.16 K, Crystal 2): 0.000343 ± 1.7e-05 kPa and 0.000352 ± 1.8e-05 kPa
- vapor or sublimation pressure (325.46 K, Crystal 2): 0.000436 ± 2.2e-05 kPa and 0.000446 ± 2.2e-05 kPa and 0.000453 ± 2.3e-05 kPa
- vapor or sublimation pressure (327.47 K, Crystal 2): 0.000543 ± 2.7e-05 kPa and 0.000544 ± 2.7e-05 kPa and 0.00055 ± 2.8e-05 kPa
- vapor or sublimation pressure (329.47 K, Crystal 2): 0.00067 ± 3.4e-05 kPa and 0.000675 ± 3.4e-05 kPa and 0.000678 ± 3.4e-05 kPa
- vapor or sublimation pressure (331.42 K, Crystal 2): 0.000814 ± 4.1e-05 kPa and 0.000825 ± 4.1e-05 kPa and 0.000834 ± 4.2e-05 kPa
- vapor or sublimation pressure (333.16 K, Crystal 2): 0.001 ± 5e-05 kPa and 0.00101 ± 0.0001 kPa
